# Assays:
# [1] = target: Spirulina subsalsa PPO CyPPO16 (SEQ ID NO: 1) variant V305M (MBP fusion); experiment: PPO enzyme inhibition (IC50), MBP-fused PPO; type: biochemical; details: 50 μM protoporphyrinogen IX, pH 8.0, room temperature, 30 min
# Experimental: (§1) Thus, PPO proteins of wild type and variants were expressed as fused to MBP and were used for experiments.
# (§2) The following process for purification of PPO protein was performed in a 4° C. cold room. Amylose resin (NEB) was packed to 1.5×15 cm column (Bio-Rad, Econo Columns 1.5×15 cm, glass chromatography column, max. vol), and the obtained protein extracts were loaded to the column at a flow rate of 0.2 ml/min. The column was washed with 3 column volumes of buffer and the presence of protein in the washing solution was examined. When the protein was no longer detected, the washing procedure was terminated. Then, the MBP-PPO protein was eluted with approximately 2 column volumes of buffer containing 20 mM maltose. The protein concentration of each eluent was determined and the elution was stopped when the protein was no longer detected. Ten microliter of each fraction was investigated for protein quantification and SDS-PAGE analysis. The highly pure fractions of PPO protein variants were used for the enzyme assay.
# (§3) Since protoporphyrinogen IX, a substrate of PPO protein, was not commercially available, it was chemically synthesized in the laboratory. Overall process was performed in dark under nitrogen stream. […] of protoporphyrin IX was dissolved in 20 ml of 20% (v/v) EtOH, and stirred under dark condition for 30 minutes. The obtained protoporphyrin IX solution was put into a 15 ml screw tube in an amount of 800 μl, and flushed with nitrogen gas for 5 minutes. To this, 1.5 g of sodium amalgam was added and vigorously shaken for 2 minutes. The lid was opened to exhaust hydrogen gas in the tube. Thereafter, the lid was closed and incubated for 3 minutes. The protoporphyrinogen IX solution was filtered using syringe and cellulose membrane filter. […] To determine the enzyme activity of PPO protein, a reaction mixture was prepared with the following composition (based on 10 ml): 50 mM Tris-Cl (pH 8.0); 50 mM NaCl; 0.04% (v/v) Tween 20; 40 mM glucose (0.072 g); 5 units glucose oxidase (16.6 mg); and 10 units catalase (1 μl).
# (§4) Hundred and eighty microliters of a reaction mixture containing the purified PPO protein were placed in 96 well plates and 20 μl of […] were added. […] The reaction proceeded at room temperature for 30 min and the fluorescence of protoporphyrin IX was measured using Microplate reader (Sense, Hidex) (excitation: 405 nm; emission: 633 nm). […] To this, 2.7 N HCl was added, and the absorbance at 408 nm was measured. A standard curve was generated using standard protoporphyrin IX, and PPO activity was measured by calibration of protoporphyrin IX using the standard curve of protoporphyrin IX.
# [2] = target: Spirulina subsalsa PPO CyPPO16 (SEQ ID NO: 1) variant V160C (MBP fusion); experiment: PPO enzyme inhibition (IC50), MBP-fused PPO; type: biochemical; details: 50 μM protoporphyrinogen IX, pH 8.0, room temperature, 30 min
# Experimental: as §1, §2, §3, §4
# [3] = target: Spirulina subsalsa PPO CyPPO16, wild type, SEQ ID NO: 1 (MBP fusion); experiment: PPO enzyme inhibition (IC50), MBP-fused PPO; type: biochemical; details: 50 μM protoporphyrinogen IX, pH 8.0, room temperature, 30 min
# Experimental: as §1, §2, §3, §4
# [4] = target: Spirulina subsalsa PPO CyPPO16 (SEQ ID NO: 1) variant L327T (MBP fusion); experiment: PPO enzyme inhibition (IC50), MBP-fused PPO; type: biochemical; details: 50 μM protoporphyrinogen IX, pH 8.0, room temperature, 30 min
# Experimental: as §1, §2, §3, §4
# [5] = target: Spirulina subsalsa PPO CyPPO16 (SEQ ID NO: 1) variant R85A (MBP fusion); experiment: PPO enzyme inhibition (IC50), MBP-fused PPO; type: biochemical; details: 50 μM protoporphyrinogen IX, pH 8.0, room temperature, 30 min
# Experimental: as §1, §2, §3, §4
# [6] = target: Spirulina subsalsa PPO CyPPO16 (SEQ ID NO: 1) variant A162L (MBP fusion); experiment: PPO enzyme inhibition (IC50), MBP-fused PPO; type: biochemical; details: 50 μM protoporphyrinogen IX, pH 8.0, room temperature, 30 min
# Experimental: as §1, §2, §3, §4
# [7] = system: CyPPO16 (SEQ ID NO: 1) variant F360L in PPO-deficient E. coli BT3(ΔPPO); type: cell-based; details: LB agar, 37° C., light, 16 to 20 hours
# Experimental: (§5) The mutated CyPPO gene obtained from the Example 2 was transformed to BT3 (ΔPPO) strain which is deficient of PPO activity and cultured in LB media with PPO-inhibiting herbicide, thereby examining whether growth of transformed BT3 was not inhibited.
# (§6) BT3 competent cells were transformed with the pET303-CyPPO16 and pET303-CyPPO17 plasmids and those with a mutation(s) constructed in Example 2 respectively, and were cultured in LB agar media containing carbenicillin (Gold Biotechnology, Co., Ltd.).
# (§7) Single colony of E. coli transformed with each CyPPO gene was cultured in 3 ml of LB broth containing carbenicillin overnight, and then was subcultured until absorbance (0D600) reached 0.5 to 1. Then, it was diluted with LB broth to OD600=0.5. Again, the diluted solution was serially diluted 4 times by a factor of one tenth.
# (§8) The LB agar media (LB 25 g/l, Bacto agar 15 g/l) containing carbenicillin (100 μg/ml) and 0 to 4,000 μM of various herbicides dissolved in DMSO was prepared. Next, 10 μl of each diluted solution was dropped on the plate and cultured at 37° C. under light (Tables 7 and 9, FIGS. 2 to 6, and 18 to 22) or dark (Tables 8 and 10, FIGS. 7 to 17, and 23 to 33) for 16 to 20 hours. Then, extent of tolerance was evaluated.
# (§9) The extent of herbicide tolerance of the mutated genes was evaluated by comparing that of mutated genes with that of wild type. The relative tolerance was represented with “+” as a factor of 10 times.
# (§10) In Tables 7 to 10, tolerance level was presented as of tolerance of wild type and of variants equivalent to that of wild type, and was done as ‘+’ per each 10 fold resistance until ‘+++++’ as maximal resistance.
# [8] = system: CyPPO17 (SEQ ID NO: 3) variant A166L in PPO-deficient E. coli BT3(ΔPPO); type: cell-based; details: LB agar, 37° C., light, 16 to 20 hours
# Experimental: as §5, §6, §7, §8, §9, §10
# [9] = system: CyPPO17 (SEQ ID NO: 3) variant A166C in PPO-deficient E. coli BT3(ΔPPO); type: cell-based; details: LB agar, 37° C., light, 16 to 20 hours
# Experimental: as §5, §6, §7, §8, §9, §10
# [10] = system: CyPPO17 (SEQ ID NO: 3) variant V304M in PPO-deficient E. coli BT3(ΔPPO); type: cell-based; details: LB agar, 37° C., light, 16 to 20 hours
# Experimental: as §5, §6, §7, §8, §9, §10
# [11] = system: CyPPO16 (SEQ ID NO: 1) variant F360M in PPO-deficient E. coli BT3(ΔPPO); type: cell-based; details: LB agar, 37° C., light, 16 to 20 hours
# Experimental: as §5, §6, §7, §8, §9, §10
# [12] = system: CyPPO16 (SEQ ID NO: 1) variant V305M in PPO-deficient E. coli BT3(ΔPPO); type: cell-based; details: LB agar, 37° C., light, 16 to 20 hours
# Experimental: as §5, §6, §7, §8, §9, §10
# [13] = system: CyPPO16 (SEQ ID NO: 1) variant F360V in PPO-deficient E. coli BT3(ΔPPO); type: cell-based; details: LB agar, 37° C., light, 16 to 20 hours
# Experimental: as §5, §6, §7, §8, §9, §10
# [14] = system: CyPPO16 (SEQ ID NO: 1) variant A162C in PPO-deficient E. coli BT3(ΔPPO); type: cell-based; details: LB agar, 37° C., light, 16 to 20 hours
# Experimental: as §5, §6, §7, §8, §9, §10
# [15] = system: CyPPO17 (SEQ ID NO: 3) variant F359L in PPO-deficient E. coli BT3(ΔPPO); type: cell-based; details: LB agar, 37° C., light, 16 to 20 hours
# Experimental: as §5, §6, §7, §8, §9, §10
# [16] = system: CyPPO17 (SEQ ID NO: 3) variant F359C in PPO-deficient E. coli BT3(ΔPPO); type: cell-based; details: LB agar, 37° C., light, 16 to 20 hours
# Experimental: as §5, §6, §7, §8, §9, §10
# [17] = system: CyPPO17 (SEQ ID NO: 3) variant F359I in PPO-deficient E. coli BT3(ΔPPO); type: cell-based; details: LB agar, 37° C., light, 16 to 20 hours
# Experimental: as §5, §6, §7, §8, §9, §10
# [18] = system: CyPPO17 (SEQ ID NO: 3) variant F359M in PPO-deficient E. coli BT3(ΔPPO); type: cell-based; details: LB agar, 37° C., light, 16 to 20 hours
# Experimental: as §5, §6, §7, §8, §9, §10
# [19] = system: CyPPO16 (SEQ ID NO: 1) variant F360C in PPO-deficient E. coli BT3(ΔPPO); type: cell-based; details: LB agar, 37° C., light, 16 to 20 hours
# Experimental: as §5, §6, §7, §8, §9, §10
# [20] = system: CyPPO16 (SEQ ID NO: 1) variant F360I in PPO-deficient E. coli BT3(ΔPPO); type: cell-based; details: LB agar, 37° C., light, 16 to 20 hours
# Experimental: as §5, §6, §7, §8, §9, §10
# [21] = system: CyPPO16 (SEQ ID NO: 1) variant A162L in PPO-deficient E. coli BT3(ΔPPO); type: cell-based; details: LB agar, 37° C., light, 16 to 20 hours
# Experimental: as §5, §6, §7, §8, §9, §10
# [22] = system: CyPPO16 wild type (SEQ ID NO: 1) in PPO-deficient E. coli BT3(ΔPPO); type: cell-based; details: LB agar, 37° C., light, 16 to 20 hours
# Experimental: as §5, §6, §7, §8
# (§11) The extent of herbicide tolerance of the mutated genes was evaluated by comparing that of mutated genes with that of wild type. The relative tolerance was represented with “+” as a factor of 10 times. Evaluation result was listed in Tables 7 to10 and FIGS. 2 to 33:
# (§12) In Tables 7 to 10, tolerance level was presented as of tolerance of wild type and of variants equivalent to that of wild type, and was done as ‘+’ per each 10 fold resistance until ‘+++++’ as maximal resistance. (Tolerance level was evaluated by relative growth level of variants to that of wild type in the media containing highest concentration of herbicide; ‘+’=1-9 fold higher tolerance, ‘++’=10-99 fold higher tolerance, ‘+++’=100-999 fold higher tolerance, ‘++++’=1,000-9,999 fold higher tolerance, ‘+++++’=more than 10,000 fold higher tolerance)
# [23] = system: CyPPO17 wild type (SEQ ID NO: 3) in PPO-deficient E. coli BT3(ΔPPO); type: cell-based; details: LB agar, 37° C., light, 16 to 20 hours
# Experimental: as §5, §6, §7, §8, §11, §12
smiles,measurement,setting,value
C#CCN1C(=O)COc2cc(F)c(N3C(=O)C4=C(CCCC4)C3=O)cc21 [flumioxazin],IC50,[1],0.038 µM
same,IC50,[2],0.057 µM
same,IC50,[3],0.014 µM
same,IC50,[4],0.78 µM
same,IC50,[5],0.059 µM
same,IC50,[6],0.578 µM
O=C(O)c1cc(Oc2ccc(C(F)(F)F)cc2Cl)ccc1[N+](=O)[O-] [acifluorfen],Herbicide tolerance (relative to wild type),[7],+ (1-9 fold higher tolerance)
same,Herbicide tolerance (relative to wild type),[8],+++ (100-999 fold higher tolerance)
same,Herbicide tolerance (relative to wild type),[9],+++ (100-999 fold higher tolerance)
same,Herbicide tolerance (relative to wild type),[10],+++ (100-999 fold higher tolerance)
same,Herbicide tolerance (relative to wild type),[11],+ (1-9 fold higher tolerance)
same,Herbicide tolerance (relative to wild type),[12],++ (10-99 fold higher tolerance)
same,Herbicide tolerance (relative to wild type),[13],+ (1-9 fold higher tolerance)
same,Herbicide tolerance (relative to wild type),[14],++ (10-99 fold higher tolerance)
same,Herbicide tolerance (relative to wild type),[15],+ (1-9 fold higher tolerance)
same,Herbicide tolerance (relative to wild type),[16],+ (1-9 fold higher tolerance)
same,Herbicide tolerance (relative to wild type),[17],+ (1-9 fold higher tolerance)
same,Herbicide tolerance (relative to wild type),[18],+++ (100-999 fold higher tolerance)
same,Herbicide tolerance (relative to wild type),[19],++ (10-99 fold higher tolerance)
same,Herbicide tolerance (relative to wild type),[20],+ (1-9 fold higher tolerance)
same,Herbicide tolerance (relative to wild type),[21],++ (10-99 fold higher tolerance)
same,Herbicide tolerance (relative to wild type),[22],−
same,Herbicide tolerance (relative to wild type),[23],−
CS(=O)(=O)NC(=O)c1cc(Oc2ccc(C(F)(F)F)cc2Cl)ccc1[N+](=O)[O-] [fomesafen],Herbicide tolerance (relative to wild type),[7],+++ (100-999 fold higher tolerance)
same,Herbicide tolerance (relative to wild type),[8],++ (10-99 fold higher tolerance)
same,Herbicide tolerance (relative to wild type),[9],+ (1-9 fold higher tolerance)
same,Herbicide tolerance (relative to wild type),[10],++ (10-99 fold higher tolerance)
same,Herbicide tolerance (relative to wild type),[11],+++ (100-999 fold higher tolerance)
same,Herbicide tolerance (relative to wild type),[12],++ (10-99 fold higher tolerance)
same,Herbicide tolerance (relative to wild type),[13],+ (1-9 fold higher tolerance)
same,Herbicide tolerance (relative to wild type),[14],++ (10-99 fold higher tolerance)
same,Herbicide tolerance (relative to wild type),[15],+ (1-9 fold higher tolerance)
same,Herbicide tolerance (relative to wild type),[16],+ (1-9 fold higher tolerance)
same,Herbicide tolerance (relative to wild type),[17],+ (1-9 fold higher tolerance)
same,Herbicide tolerance (relative to wild type),[18],++ (10-99 fold higher tolerance)
same,Herbicide tolerance (relative to wild type),[19],++ (10-99 fold higher tolerance)
same,Herbicide tolerance (relative to wild type),[20],+ (1-9 fold higher tolerance)
same,Herbicide tolerance (relative to wild type),[21],++ (10-99 fold higher tolerance)
same,Herbicide tolerance (relative to wild type),[22],−
same,Herbicide tolerance (relative to wild type),[23],−
Cc1nn(-c2cc(NS(C)(=O)=O)c(Cl)cc2Cl)c(=O)n1C(F)F [sulfentrazone],IC50,[1],0.305 µM
same,IC50,[2],0.584 µM
same,IC50,[3],0.245 µM
same,IC50,[4],1.83 µM
same,IC50,[5],1.04 µM
same,IC50,[6],1.1 µM
